{
  "source": "paper PMC7822874",
  "about": "“Chemoprotective antimalarials identified through quantitative high-throughput screening of Plasmodium blood and liver stage parasites” (Scientific Reports, 2021)",
  "key": {"[1]": {"system": "T1, Plasmodium falciparum Dd2 asexual blood stage parasites", "T1 construct": "Dd2 line, asexual blood stage", "assay": "microbe, parasite or virus in culture", "set-up": "species or system P. falciparum Dd2 in human erythrocytes; SYBR Green-I proliferation assay, P. falciparum Dd2 asexual blood stages, growth inhibition", "settings": "DD2, Erythrocyte, 72 h, SYBR Green-I; call rule not given here", "procedure": "The P. falciparum parasite Dd2 line was cultured in vitro using standard conditions63. Briefly, parasites were maintained in 2% human O+ erythrocytes (Interstate Blood Bank, Memphis, TN) in RPMI-1640 medium (Life Technologies, Grand Island, NY) supplemented with 0.5% Albumax II (Life Technologies), 2 mM l-glutamine, 50 mg/L hypoxanthine, 25 mM HEPES, 0.225% NaHCO3, 24 mM sodium bicarbonate, and 10 μg/ml gentamycin. Tissue culture flasks and assay plates were incubated at 37 °C under a gas mixture of 5% CO2, 5% O2 and 90% N2. Methods for the SYBR Green-I qHTS, calculation of AC50 (50% of the normalized compound response relative to the maximum response), and definition of curve classes have been described30,64–66. qHTS assays were performed in a single replicate with a 7- to 11-point dose response format, and follow-up screens with 3–11 independent 11-point response assays. Significant differences were assessed using two-sided Student’s t-tests. All HTS assays were stopped and read at 72 h. Percent response values represent relative growth as judged by SYBR Green-I fluorescence intensity values normalized to controls. […] […]"}, "[2]": {"system": "sporozoites / hepatocytes", "settings": "cited from earlier work"}, "[3]": {"system": "P. berghei-ANKA-GFP-LucCON liver stage parasites in HepG2-A16-CD81EGFP cells", "assay": "P. berghei liver stage Pb-Luc assay, Method 1 (UCSD, 1536-well)", "assay_type": "cell-based, Plasmodium berghei", "settings": "Plasmodium berghei"}, "[4]": {"biological_target": "T2, Firefly luciferase (Fluc, EC 1.13.12.7) (Photinus pyralis, UniProt P08659)", "T2 sequence (P08659 whole entry)": "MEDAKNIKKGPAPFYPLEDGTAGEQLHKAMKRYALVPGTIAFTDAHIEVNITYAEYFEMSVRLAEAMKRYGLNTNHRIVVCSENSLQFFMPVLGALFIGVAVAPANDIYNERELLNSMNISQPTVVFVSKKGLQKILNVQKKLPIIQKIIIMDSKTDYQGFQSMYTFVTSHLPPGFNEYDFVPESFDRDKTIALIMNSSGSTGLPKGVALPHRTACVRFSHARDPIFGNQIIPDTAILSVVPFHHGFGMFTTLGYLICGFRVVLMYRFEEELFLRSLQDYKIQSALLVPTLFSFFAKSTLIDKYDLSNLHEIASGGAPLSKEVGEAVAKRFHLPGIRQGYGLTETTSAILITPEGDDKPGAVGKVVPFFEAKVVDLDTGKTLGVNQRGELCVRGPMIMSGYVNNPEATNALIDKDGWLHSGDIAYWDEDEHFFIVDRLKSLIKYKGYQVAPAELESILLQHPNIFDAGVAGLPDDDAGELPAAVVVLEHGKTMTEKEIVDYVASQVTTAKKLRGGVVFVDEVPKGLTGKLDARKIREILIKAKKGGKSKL", "assay": "biochemical", "set-up": "Firefly luciferase enzyme inhibition counterscreen, luminescence with ATP and D-luciferin", "settings": "read-out: Log AC50 (the source's name) (converted)", "procedure": "(§1) Compound activity against the Photinus pyralis luciferase (Firefly luciferase, Fluc) reporter utilized for the liver stage assay was determined as previously described using 10 nM Fluc (EC 1.13.12.7) and 10 μM of each substrate (ATP and D-luciferin)[68]. […] Luminescence was detected using ViewLux µHTS Microplate Imager. A counter screen of these 4253 compounds was also performed against the Fluc enzyme, as both liver stage methods utilized a transgenic P. berghei Fluc parasite."}, "in vitro [5]": {"assay": "in vitro", "settings": "human, hepg2 cells"}, "HepG2": {"system": "HepG2", "settings": "human, hepg2 cells, 48 h"}, "[6]": {"system": "luciferase-expressing P. berghei liver stage parasites in HepG2 cells", "assay": "Inhibition of liver-stage development assay (ILSDA), Method 2 (WRAIR, 96-well)", "assay_type": "cell-based, Plasmodium berghei", "settings": "for Max Resp (signal direction of the dose response): Method 2, Decrease = decreasing P. berghei viability with dose, Increase = increasing signal, Inactive = no dose response; for AC50: Plasmodium berghei"}, "[7]": {"biological_target": "T2, Firefly luciferase (Fluc, EC 1.13.12.7)", "assay": "biochemical", "set-up": "Firefly luciferase enzyme inhibition counter-screen, luminescence read-out", "procedure": "as §1"}, "[8]": {"system": "P. falciparum Dd2 Cytb G131S", "assay": "SYBR Green ABS proliferation assay, NCGC00374598 selected clone C11", "assay_type": "cell-based, Plasmodium falciparum", "settings": "Plasmodium falciparum", "outline": "(§2)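 72 h SYBR Green-I read; % response = relative growth vs controls. Clones from resistance selection, cloned by limiting dilution; 37 °C, 5% CO2/5% O2/90% N2.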"}, "[9]": {"system": "P. falciparum Dd2-B2 parasites", "assay": "In vitro resistance selection under constant drug pressure", "assay_type": "cell-based, Plasmodium falciparum", "procedure": "Recently cloned P. falciparum Dd2-B2 parasites, cultured in duplicate flasks each harboring an inoculum of 2 × 10^9 parasites, were subjected to constant drug pressure from NCGC00473217 at 5 × AC50 or NCGC00374598 at 3 × AC50. […] Clones were then obtained by limiting dilution and three to four clones from each flask were expanded for profiling and sequencing.\nFresh uninfected RBCs (0.5% hematocrit) were added on day 7 and media was changed every other day. […] Resistant parasites were maintained under drug media at a volume of 50 mL until a high parasitemia (> 5%) was achieved. Aliquots of the bulk resistant cultures were frozen in cryovials before cloning by limiting dilution in 96-well plates (seeded at 0.25 or 0.5 parasites/well)[70]. After 3 weeks of cloning, we screened for positive wells by flow cytometry with SYBR Green-stained cells. […] Parasites were harvested by saponin lysis at the trophozoite stage and genomic DNA was extracted using the QIAamp DNA Blood Midi Kit (Qiagen, Germantown, MD)[71]."}, "[10]": {"system": "P. falciparum Dd2 Cytb F123L", "assay": "SYBR Green ABS proliferation assay, NCGC00473217 selected clone G08", "assay_type": "cell-based, Plasmodium falciparum", "settings": "Plasmodium falciparum", "outline": "as §2"}, "[11]": {"system": "P. falciparum Dd2 (clone B2) asexual blood stage parasites", "assay": "P. falciparum Dd2 asexual blood stage SYBR Green-I 72 h proliferation assay (qHTS)", "assay_type": "cell-based, Plasmodium falciparum"}, "[12]": {"system": "P. falciparum Dd2 Cytb V259L", "assay": "SYBR Green ABS proliferation assay, NCGC00473217 selected clone F06", "assay_type": "cell-based, Plasmodium falciparum", "settings": "Plasmodium falciparum", "outline": "as §2"}, "in vitro [13]": {"assay": "in vitro", "settings": "rat, microsomes", "procedure": "Pharmacokinetic modeling experiments, parallel artificial membrane permeability assay (PAMPA), solubility, and rat liver microsome stability assessment were performed on all synthetic compounds, as previously described[73]–[75]."}, "[14]": {"system": "P. falciparum Dd2 Cytb A122D", "assay": "SYBR Green ABS proliferation assay, NCGC00473217 selected clone F12", "assay_type": "cell-based, Plasmodium falciparum", "settings": "Plasmodium falciparum", "outline": "as §2"}, "HepG2 cells": {"system": "HepG2 cells", "assay": "HepG2 mammalian toxicity, CellTiter-Glo, 48 h", "settings": "48 h compound exposure"}, "in vitro [15]": {"assay": "in vitro", "settings": "human"}},
  "note": "Like-named read-outs stand apart in the source and are kept apart here.",
  "data": [
    {"smiles": "CNC(=O)Oc1cccc(-c2cn3cc(OC(=O)NC)ccc3n2)c1", "note": "[MLS000700241-01]", "values": [
      {"measurement": "AC50", "setting": "[1]", "result": "> 28000", "unit": "nM"}
    ]},
    {"smiles": "CC(C)(CN)c1nc(-c2ccc(Cl)c(O)c2)c(-c2ccncc2)[nH]1", "note": "[MMV030084]", "values": [
      {"measurement": "IC50", "setting": "[2]; added 2 h post sporozoite addition", "result": "> 10000", "unit": "nM"},
      {"measurement": "IC50", "setting": "[2]; pre-treat hepatocytes 4 h prior to adding sporozoites", "result": 199, "unit": "nM"}
    ]},
    {"smiles": "COc1cc(Cc2cnc(N)nc2N)cc(OC)c1OC", "note": "[NCGC00016055-05]", "values": [
      {"measurement": "AC50", "setting": "[1]", "result": "> 28000", "unit": "nM"}
    ]},
    {"smiles": "CCN(CC)CCCN(c1ccccc1)C1Cc2ccccc2C1.Cl", "note": "[NCGC00167576-01]", "values": [
      {"measurement": "AC50", "setting": "[3]; Method 1, log10 of molar AC50 from Hill fit, read-out: Log AC50 (converted)", "result": 1580, "unit": "nM"},
      {"measurement": "IC50", "setting": "[4]", "result": "> 57000", "unit": "nM"},
      {"measurement": "CC50 at 48 h", "setting": "in vitro [5]", "result": 27300, "unit": "nM"},
      {"measurement": "Log AC50 (M)", "setting": "HepG2", "result": -4.5643, "unit": "M"},
      {"measurement": "Max Resp (signal direction of the dose response)", "setting": "[6]", "result": "Decrease"},
      {"measurement": "AC50", "setting": "[6]; HepG2, Method 2, Hill fit, 50% of maximum activity response, read-out: AC50", "result": 7940, "unit": "nM"},
      {"measurement": "AC50", "setting": "[6]; HepG2, Method 2, log10 of molar AC50 from Hill fit, read-out: Log AC50 (converted)", "result": 7940, "unit": "nM"},
      {"measurement": "AC50", "setting": "[7]", "result": "> 57000", "unit": "nM"}
    ]},
    {"smiles": "CC(=O)Nc1ccc(CN2CCc3nc(C(C)C)nc(-c4ccc(Cl)cc4)c3CC2)cc1", "note": "[NCGC00374598]", "values": [
      {"measurement": "AC50", "setting": "[3]; UCSD, read-out: liver stage AC50 (Method 1)", "result": 710, "unit": "nM"},
      {"measurement": "inhibition at 1 µM", "setting": "[3]; 1 μM", "result": "> 60", "unit": "%"},
      {"measurement": "inhibition at 3 µM", "setting": "[3]; 3 μM", "result": "> 90", "unit": "%"},
      {"measurement": "AC50", "setting": "[8]; DD2, NCGC00374598 selected clone, read-out: AC50 Log[M] ± SD, Cytb G131S (converted)", "result": "3.47e-06", "unit": "M"},
      {"measurement": "AC50", "setting": "[8]; DD2, Suppl Table 6, read-out: AC50 (mM), Dd2 Cytb G131S", "result": "3.47e-06", "unit": "M"},
      {"measurement": "Recrudescence under pressure", "setting": "[9]; 2 × 10^9 parasites, 5 × AC50 (NCGC00473217) or 3 × AC50 (NCGC00374598)", "result": 36, "unit": "days"},
      {"measurement": "AC50 increase of selected clones", "setting": "[9]; clones from selections with the same compound", "result": "threefold increase"},
      {"measurement": "Max Resp (signal direction of the dose response)", "setting": "[6]", "result": "Inactive"},
      {"measurement": "AC50", "setting": "[6]; HepG2, mean, read-out: liver stage AC50 (Method 2)", "result": 500, "unit": "nM"},
      {"measurement": "AC50", "setting": "[10]; DD2, NCGC00473217 selected clone, read-out: AC50 Log[M] ± SD, Cytb F123L (converted)", "result": "3.89e-07", "unit": "M"},
      {"measurement": "AC50", "setting": "[10]; DD2, Suppl Table 6, read-out: AC50 (mM), Dd2 Cytb F123L", "result": "3.89e-07", "unit": "M"},
      {"measurement": "AC50", "setting": "[11]; Plasmodium falciparum, DD2, 72 h, SYBR Green 72 h, WT Dd2-B2, read-out: AC50 Log[M] ± SD, Dd2-B2 (parental line) (converted)", "result": "1.58e-06", "unit": "M"},
      {"measurement": "AC50", "setting": "[11]; Plasmodium falciparum, DD2, 72 h, SYBR Green 72 h, approximate value in μM, read-out: AC50 [μM], Dd2-B2 (parental line) (converted)", "result": "1.5e-06", "unit": "M"},
      {"measurement": "AC50", "setting": "[11]; Plasmodium falciparum, DD2, Suppl Table 6, read-out: AC50 (mM), WT (Dd2-B2)", "result": "1.51e-06", "unit": "M"},
      {"measurement": "AC50", "setting": "[11]; SYBR Green 72 h, approximate value in μM, read-out: AC50 [μM], Dd2-B2 (parental line) (converted)", "result": "1.51e-06", "unit": "M"},
      {"measurement": "AC50", "setting": "[12]; DD2, NCGC00473217 selected clone, read-out: AC50 Log[M] ± SD, Cytb V259L (converted)", "result": "2.82e-06", "unit": "M"},
      {"measurement": "AC50", "setting": "[12]; DD2, Suppl Table 6, read-out: AC50 (mM), Dd2 Cytb V259L", "result": "2.82e-06", "unit": "M"},
      {"measurement": "half-life", "setting": "in vitro [13]", "result": 4, "unit": "min"},
      {"measurement": "AC50", "setting": "[14]; DD2, NCGC00473217 selected clone, read-out: AC50 Log[M] ± SD, Cytb A122D (converted)", "result": "2.09e-06", "unit": "M"},
      {"measurement": "AC50", "setting": "[14]; DD2, Suppl Table 6, read-out: AC50 (mM), Dd2 Cytb A122D", "result": "2.09e-06", "unit": "M"},
      {"measurement": "HepG2 AC50 (mammalian cellular toxicity)", "setting": "HepG2 cells", "result": "no apparent toxicity"},
      {"measurement": "AC50", "setting": "in vitro [15]", "result": "> 20000", "unit": "nM"}
    ]}
  ]
}
